Source: ChEMBL document CHEMBL1201862, “PubChem BioAssay data set” (2004)
Activity calls are given as the source filed them.

Key:
[1] = molecular target: Dual specificity protein kinase CLK1 (Homo sapiens, UniProt P49759); assay: inhibition of human CLK1 activity – biochemical, cherry-picked samples, selectivity assay for Dyrk1A inhibitor project, dose response (AID 588811)
[2] = molecular target: Dual specificity tyrosine-phosphorylation-regulated kinase 1A (Rattus norvegicus, UniProt Q63470); type: biochemical, Homo sapiens
Cytochrome P450 1A2 = molecular target: T1, Cytochrome P450 1A2 (Homo sapiens, UniProt P05177);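 note: PubChem cytochrome P450 panel assay, CYP1A2 panel member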
T1 sequence (P05177 whole entry): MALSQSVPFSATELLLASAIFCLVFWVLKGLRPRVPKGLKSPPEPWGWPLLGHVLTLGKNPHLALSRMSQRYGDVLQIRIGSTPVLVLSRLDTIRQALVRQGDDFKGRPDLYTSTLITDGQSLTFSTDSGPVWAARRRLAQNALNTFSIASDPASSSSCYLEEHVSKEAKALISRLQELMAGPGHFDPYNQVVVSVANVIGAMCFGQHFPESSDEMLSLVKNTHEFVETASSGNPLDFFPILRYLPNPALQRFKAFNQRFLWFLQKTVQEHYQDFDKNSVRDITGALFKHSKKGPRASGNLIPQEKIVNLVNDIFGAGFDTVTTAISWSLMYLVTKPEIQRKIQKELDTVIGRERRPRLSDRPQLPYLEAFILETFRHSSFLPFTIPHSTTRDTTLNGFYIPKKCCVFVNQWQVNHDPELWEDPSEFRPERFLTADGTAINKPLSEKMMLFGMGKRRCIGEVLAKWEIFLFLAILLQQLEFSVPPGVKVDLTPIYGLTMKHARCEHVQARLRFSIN

Jurkat = assay: blockers of NF-kB activation in T cells – Jurkat, luciferase reporter, luminescence, B- and T-cell, dose response (AID 489004); type: functional, cell-based; conditions: Homo sapiens;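 note: NF-kB luciferase reporter Jurkat cells stimulated with PMA plus ionomycin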
INS1 = assay: INS-1E survival protection against cytokine death – cell-based, luminescence, retest, dose response (AID 449756); type: functional; conditions: Rattus norvegicus;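 note: cell death triggered by IL-1 beta plus TNF-alpha plus IFN-gamma mixture; protective hits raise ATP signal compared with cytokine alone wells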
cells = type: functional, cell-based; conditions: HEK-CNG
[3] = reduction of Shn3 3'UTR-driven luciferase in osteoblasts – cell-based, Clone20 osteoblasts, firefly luciferase, cherry-picked, dose response (AID 624132); type: functional;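 note: firefly luciferase luminescence from reporter carrying the Shn3 3'UTR in osteoblasts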
Galanin receptor type 3 = molecular target: T2, Galanin receptor type 3 (Homo sapiens, UniProt O60755); assay: Fluorescence-based cell-based primary high throughput dose response assay to identify antagonists of the Galanin Receptor 3 (GalR3).; type: functional
T2 sequence (O60755 whole entry): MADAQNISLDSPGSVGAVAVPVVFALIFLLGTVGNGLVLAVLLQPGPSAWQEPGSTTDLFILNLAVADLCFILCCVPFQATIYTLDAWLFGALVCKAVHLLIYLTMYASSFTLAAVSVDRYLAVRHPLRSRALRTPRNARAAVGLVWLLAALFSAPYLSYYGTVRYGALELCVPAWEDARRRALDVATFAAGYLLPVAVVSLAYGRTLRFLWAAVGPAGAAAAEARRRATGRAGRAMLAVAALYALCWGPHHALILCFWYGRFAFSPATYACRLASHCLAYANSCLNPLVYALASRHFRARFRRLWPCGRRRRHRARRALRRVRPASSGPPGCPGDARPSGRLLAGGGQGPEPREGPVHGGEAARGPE

[4] = non-specific 3'UTR reporter inhibition in Clone20-Shn3RL – cell-based, Renilla luciferase, cherry-picked, counter-screen for Shn3 inhibitor project, dose response (AID 624133); type: functional
[5] = molecular target: T3, COUP transcription factor 2 (Homo sapiens, UniProt P24468); assay: Luminescence-based cell-based high throughput dose response assay to identify inhibitors of COUP-TFII (NR2F2).; type: functional;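 note: HEK293 cells transiently cotransfected with COUP-TFII expression vector and reporter; luciferase reporter luminescence driven by COUP-TFII from the pX2-168 reporter plasmid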
T3 sequence (P24468 whole entry): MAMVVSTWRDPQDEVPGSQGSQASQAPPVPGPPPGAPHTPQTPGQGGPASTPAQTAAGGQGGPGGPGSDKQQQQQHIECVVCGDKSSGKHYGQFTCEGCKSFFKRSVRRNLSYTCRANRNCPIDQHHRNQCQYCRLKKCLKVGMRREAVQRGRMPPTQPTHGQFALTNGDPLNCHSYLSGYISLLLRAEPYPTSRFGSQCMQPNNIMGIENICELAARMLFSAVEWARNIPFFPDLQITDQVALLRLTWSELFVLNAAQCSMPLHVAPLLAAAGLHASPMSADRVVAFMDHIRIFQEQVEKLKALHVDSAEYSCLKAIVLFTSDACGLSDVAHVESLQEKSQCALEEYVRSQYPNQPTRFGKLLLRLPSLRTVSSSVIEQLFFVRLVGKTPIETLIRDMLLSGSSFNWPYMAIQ

[6] = loss of viability in HepG2 cells – cell-based, CellTiter-Glo, cherry-picked, cytotoxicity control for Shn3 inhibitor project, dose response (AID 624134); type: functional
[7] = HEK-293T viability loss, compound-treated – cell-based, uHTS hits, cytotoxicity control for B/T-cell NF-kB inhibitor project, dose response (AID 489019); type: functional;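 note: IC50 reflects cytotoxicity as loss of cell viability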
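Throughout, for EC50: target is galanin receptor GalR3 read with a cAMP biosensor in HEK293 cells.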

Sequence of Dual specificity protein kinase CLK1 (P49759 whole entry): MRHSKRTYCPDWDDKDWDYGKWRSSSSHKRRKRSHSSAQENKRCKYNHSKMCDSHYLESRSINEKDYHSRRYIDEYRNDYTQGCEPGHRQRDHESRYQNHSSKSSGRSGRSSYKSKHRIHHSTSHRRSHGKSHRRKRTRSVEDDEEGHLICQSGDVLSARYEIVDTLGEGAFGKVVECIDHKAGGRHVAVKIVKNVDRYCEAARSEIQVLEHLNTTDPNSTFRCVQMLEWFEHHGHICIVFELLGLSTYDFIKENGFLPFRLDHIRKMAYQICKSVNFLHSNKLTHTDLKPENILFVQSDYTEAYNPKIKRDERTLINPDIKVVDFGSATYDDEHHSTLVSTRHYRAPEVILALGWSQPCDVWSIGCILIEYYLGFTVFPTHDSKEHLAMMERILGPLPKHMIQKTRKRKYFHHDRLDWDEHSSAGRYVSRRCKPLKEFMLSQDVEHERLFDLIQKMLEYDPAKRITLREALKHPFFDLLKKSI

Which AC50 [1] does the source give for O=C(COc1ccccc1)Nc1cccc(-c2cn3cccnc3n2)c1 here?
The AC50 was 10400 nM (active).

What about the AC50 [2] of the same compound?
Its AC50 is 3850 nM (active).

Which AC50 (Cytochrome P450 1A2) does the source give for COc1ccc(C(=O)N2CCC3(CCCN(C(=O)NC(C)C)C3)CC2)cc1 here?
Its AC50 is “inactive”.

What does the source list for CCOc1cc(S(=O)(=O)NCc2ccncc2)ccc1Cl?
IC50 (Jurkat): > 80000 nM (inactive); AC50 (INS1): 848 nM (active); EC50 (cells): > 29900 nM (inactive); AC50 [3]: < 260 nM (active); IC50 (Galanin receptor type 3): 581 nM (active); AC50 [4]: < 260 nM (active); IC50 [5]: 2290 nM (active); AC50 [6]: 450 nM (active); IC50 [7]: > 80000 nM (inactive)
